The text below walks through data of ChEMBL document CHEMBL5137037, “Phage Display Selected Cyclic Peptide Inhibitors of Kallikrein-Related Peptidases 5 and 7 and Their In Vivo Delivery to the Skin” (J Med Chem, 2022).

Numbered stars: 1 amine (or outer) side, 2 acyl side, 3 side chain; on linkers, the order of the positions; unused ones are H or OH. Bridge positions count the residues as written; N and C are the ends. Peptide text beside a SMILES is read from it. * marks the point of attachment. Pyridine(2,6-diCH2) = c1cc(C[*:1])nc(C[*:2])c1; Pyrrolidin1yl(2S-Ac) = CC(=O)[C@@H]1CCCN1*; CH2COCH2 = O=C(C[*:1])C[*:2]

The first assay concerns the target T1, Kallikrein-5 (Homo sapiens, UniProt Q9Y337).
T1 sequence (Q9Y337 whole entry): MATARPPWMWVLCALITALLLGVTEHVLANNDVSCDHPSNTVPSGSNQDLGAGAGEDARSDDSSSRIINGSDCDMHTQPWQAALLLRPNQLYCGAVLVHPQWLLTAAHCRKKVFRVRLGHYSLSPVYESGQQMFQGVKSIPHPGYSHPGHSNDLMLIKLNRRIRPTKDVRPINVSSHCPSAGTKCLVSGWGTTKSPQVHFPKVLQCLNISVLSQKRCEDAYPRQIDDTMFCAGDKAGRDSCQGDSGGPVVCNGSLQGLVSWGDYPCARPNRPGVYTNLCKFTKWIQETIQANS
As to the kind of experiment: Inhibition of C-terminal poly-His-tagged human recombinant KLK5 (30 to 293 residues) transfected in CHO cells assessed as inhibition constant using Boc-VPR-AMC as fluorogenic substrate incubated for 30 mins by fluorescence plate reader assay. Format: cell-based. The conditions noted are these: cho.
Turning to `CC(C)[C@H](NC(=O)[C@H]1CSCc2cccc(n2)CSC[C@@H](NC(=O)[C@H](CO)NC(=O)CNC(=O)[C@@H]2CCCN2C(=O)[C@@H](NC(=O)[C@H](CO)NC(=O)[C@H](CC(=O)O)NC(=O)[C@@H]2CSCc3cccc(n3)CSC[C@@H](NC(=O)CN)C(=O)N[C@@H]([C@@H](C)O)C(=O)N[C@@H](CCCNC(=N)N)C(=O)N[C@@H](CCC(N)=O)C(=O)N[C@@H](Cc3c[nH]c4ccccc34)C(=O)N3CCC[C@H]3C(=O)N2)C(C)C)C(=O)N[C@@H]([C@@H](C)O)C(=O)N1)C(=O)O`, the Ki was 2 nM.

A further assay deals with Kallikrein-7 (Homo sapiens, UniProt P49862). As to the kind of experiment: Inhibition of C-terminal poly-His-tagged human recombinant KLK7 (30 to 253 residues) transfected in CHO cells assessed as inhibition constant using KHLY-pNA as fluorogenic substrate incubated for 30 mins by fluorescence plate reader assay.
Kallikrein-7, sequence (P49862 whole entry, the tested form may be a part): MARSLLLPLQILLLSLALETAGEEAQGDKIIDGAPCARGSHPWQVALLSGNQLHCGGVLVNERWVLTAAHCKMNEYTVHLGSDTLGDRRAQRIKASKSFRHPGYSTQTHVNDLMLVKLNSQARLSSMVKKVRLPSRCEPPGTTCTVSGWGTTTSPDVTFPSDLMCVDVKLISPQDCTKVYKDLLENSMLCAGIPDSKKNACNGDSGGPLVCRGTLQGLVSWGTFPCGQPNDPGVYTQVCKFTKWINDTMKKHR
Conditions: not given
Format: cell-based.
For `CC(C)C[C@@H]1NC(=O)[C@H](Cc2ccc(O)cc2)NC(=O)[C@H](CC(C)C)NC(=O)[C@@H](NC(=O)[C@@H]2CCCN2)CSCC(=O)CSC[C@@H](C(=O)N[C@@H](CO)C(=O)O)NC(=O)[C@H](CCC(N)=O)NC(=O)[C@H](C)NC1=O` (H-PCLYLAQCS-OH; linker 2-8 via CH2COCH2), the inhibitory constant (Ki) was 36 nM.

Consider `CC(=O)[C@@H]1CCCN1C(=O)[C@@H]1CSCc2cccc(n2)CSC[C@H](NC(=O)[C@@H]2CCCN2)C(=O)N[C@@H](CC(C)C)C(=O)N[C@@H](Cc2ccc(O)cc2)C(=O)N[C@@H](CC(C)C)C(=O)N[C@@H](CO)C(=O)N1` (H-PCLYLSC-{Pyrrolidin1yl(2S-Ac)}; linker 2-7 via Pyridine(2,6-diCH2)), for which the Ki turned out to be 50 nM.

As to `CC(C)C[C@@H]1NC(=O)[C@H](Cc2ccc(O)cc2)NC(=O)[C@H](CC(C)C)NC(=O)[C@@H](NC(=O)[C@@H]2CCCN2)CSCc2cccc(n2)CSC[C@@H](C(=O)O)NC(=O)[C@H](C)NC1=O` (mixture of isomers), the Ki came out at 19 nM.

`CCCCCCCCCCCCCCCC(=O)NCCCC[C@H](NC(=O)[C@H](CCC(=O)O)NC(=O)[C@H](Cc1ccc(O)cc1)NC(=O)[C@H](CCC(=O)O)NC(=O)COCCOCCNC(=O)c1ccc(-c2c3ccc(=O)cc-3oc3cc(O)ccc23)c(C(=O)O)c1)C(=O)N[C@@H](CCC(=O)O)C(=O)N[C@@H](Cc1ccc(O)cc1)C(=O)N[C@@H](CCC(=O)O)C(=O)NCCOCCOCC(=O)NCCCC[C@H](NC(=O)CNC(=O)[C@@H]1CSCC(=O)CSC[C@H](NC(=O)[C@@H]2CCCN2)C(=O)N[C@@H](CC(C)C)C(=O)N[C@@H](Cc2ccc(O)cc2)C(=O)N[C@@H](CCCC)C(=O)N[C@@H](C)C(=O)N[C@@H](CCCNC(=N)N)C(=O)N1)C(=O)NCC(N)=O`: the Ki came to 7 nM.

For the molecule `CC(C)C[C@@H]1NC(=O)[C@@H](NC(=O)[C@@H]2CCCN2)CSCc2cccc(n2)CSC[C@@H](C(=O)N[C@@H](CO)C(=O)O)NC(=O)[C@H](CO)NC(=O)[C@H](CC(C)C)NC(=O)[C@H](Cc2ccccc2)NC1=O` (H-PCLFLSCS-OH; linker 2-7 via Pyridine(2,6-diCH2)), the Ki amounted to 220 nM.

As for `CSCC[C@@H]1NC(=O)[C@H](Cc2ccc(O)cc2)NC(=O)[C@H](CC(C)C)NC(=O)[C@@H](NC(=O)[C@@H](N)CCC(N)=O)CSCC(=O)CSC[C@@H](C(=O)N[C@@H](CO)C(=O)N2CCC[C@H]2C(=O)N[C@H](C(=O)N[C@H]2CSCC(=O)CSC[C@@H](C(=O)N[C@@H](CCC(N)=O)C(=O)O)NC(=O)[C@H](Cc3ccc(O)cc3)NC(=O)[C@H](CCC(N)=O)NC(=O)[C@H](CCC(N)=O)NC(=O)[C@@H]3CCCN3C2=O)C(C)C)NC(=O)[C@H](CCCNC(=N)N)NC(=O)[C@H](C)NC1=O` (H-QCLYMARCSPVCPQQYCQ-OH; linker 2-8, 12-17 via CH2COCH2), the Ki is 9 nM.

Consider `CC(C)C[C@@H]1NC(=O)[C@@H](NC(=O)[C@@H]2CCCN2)CSCc2cccc(n2)CSC[C@@H](C(=O)N[C@@H](CO)C(=O)O)NC(=O)[C@H](CO)NC(=O)[C@H](CC(C)C)NC(=O)[C@H](Cc2ccc(O)cc2)NC1=O` (H-PCLYLSCS-OH; linker 2-7 via Pyridine(2,6-diCH2)), for which the inhibition constant Ki stood at 29.4 nM.

Consider `CC[C@H](C)[C@@H]1NC(=O)[C@H](CCCNC(=N)N)NC(=O)[C@H](Cc2ccc(O)cc2)NC(=O)[C@H](CC(C)C)NC(=O)[C@@H](NC(=O)[C@H](CCC(N)=O)NC(=O)[C@@H]2CCCN2C(=O)[C@@H]2CSCc3cccc(n3)CSC[C@H](NC(=O)[C@@H](N)Cc3c[nH]cn3)C(=O)N[C@@H](CCCNC(=N)N)C(=O)N[C@@H](CCCCN)C(=O)NCC(=O)N[C@@H](CC(C)C)C(=O)N[C@@H](CC(=O)O)C(=O)N[C@@H](CCCNC(=N)N)C(=O)N2)CSCc2cccc(n2)CSC[C@@H](C(=O)N[C@@H](CO)C(N)=O)NC1=O` (H-HCRKGLDRCPQCLYRICS-NH2; linker 2-9, 12-17 via Pyridine(2,6-diCH2)), for which the Ki worked out at 66 nM.

With `CC(C)C[C@@H]1NC(=O)[C@@H](NC(=O)[C@@H]2CCCN2)CSCc2cccc(n2)CSC[C@@H](C(=O)N[C@@H](CO)C(=O)O)NC(=O)[C@H](CO)NC(=O)[C@H](CCC(N)=O)NC(=O)[C@H](Cc2ccc(O)cc2)NC1=O` (H-PCLYQSCS-OH; linker 2-7 via Pyridine(2,6-diCH2)), the Ki is 440 nM.

In the case of `CC(C)C[C@@H]1NC(=O)[C@H](Cc2ccc(O)cc2)NC(=O)[C@H](CC(C)C)NC(=O)[C@@H](NC(=O)[C@@H]2CCCN2)CSCc2cccc(n2)CSC[C@@H](C(=O)N[C@@H](CO)C(=O)O)NC(=O)[C@H](C)NC1=O` (H-PCLYLACS-OH; linker 2-7 via Pyridine(2,6-diCH2)), the Ki came out at 17.5 nM.

In the case of `CSCC[C@H](NC(=O)[C@@H]1CSCc2cccc(n2)CSC[C@H](NC(=O)[C@@H](N)CCCNC(=N)N)C(=O)N[C@@H](CC(=O)O)C(=O)N[C@@H](CO)C(=O)N[C@@H](CO)C(=O)N[C@@H](CCC(N)=O)C(=O)N1)C(=O)N[C@@H](CCC(N)=O)C(=O)NCC(=O)N[C@@H](CCC(N)=O)C(=O)N[C@H]1CSCc2cccc(n2)CSC[C@@H](C(=O)N2CCC[C@H]2C(=O)O)NC(=O)[C@H](CO)NC(=O)[C@H](CCCNC(=N)N)NC(=O)[C@H](Cc2ccc(O)cc2)NC(=O)[C@H](CC(C)C)NC1=O` (H-RCDSSQCMQGQCLYRSCP-OH; linker 2-7, 12-17 via Pyridine(2,6-diCH2)), the inhibition constant (Ki) was found to be 94 nM.

On to `CC(C)C[C@@H]1NC(=O)[C@@H](NC(=O)[C@@H](N)Cc2ccccc2)CSCC(=O)CSC[C@@H](C(=O)N[C@@H](CCC(N)=O)C(=O)N2CCC[C@H]2C(=O)N2CCC[C@H]2C(=O)N[C@@H](CCC(=O)O)C(=O)N[C@@H](C)C(=O)N[C@H]2CSCC(=O)CSC[C@@H](C(=O)N[C@@H](CCC(=O)O)C(=O)O)NC(=O)[C@H](CCC(N)=O)NC(=O)[C@H](CO)NC(=O)[C@@H]3CCCN3C2=O)NC(=O)[C@H](Cc2c[nH]c3ccccc23)NC(=O)[C@@H]2CCCN2C(=O)[C@H](Cc2c[nH]c3ccccc23)NC1=O` (H-FCLWPWCQPPEACPSQCE-OH; linker 2-7, 13-17 via CH2COCH2), for which the inhibition constant Ki is more than 1000 nM.

As for `CSCC[C@@H]1NC(=O)[C@H](Cc2ccc(O)cc2)NC(=O)[C@H](CC(C)C)NC(=O)[C@@H](NC(=O)[C@@H]2CCCN2)CSCC(=O)CSC[C@@H](C(=O)N[C@@H](CO)C(=O)O)NC(=O)[C@H](CCCNC(=N)N)NC(=O)[C@H](C)NC1=O` (H-PCLYMARCS-OH; linker 2-8 via CH2COCH2), the Ki is 10.1 nM.

Consider `CC[C@H](C)[C@@H]1NC(=O)[C@H](Cc2ccc(O)cc2)NC(=O)[C@H](CC(C)C)NC(=O)[C@@H](NC(=O)[C@@H](N)CCC(N)=O)CSCc2cccc(n2)CSC[C@@H](C(=O)N2CCC[C@H]2C(=O)N[C@@H](CO)C(=O)N[C@@H](C)C(=O)N[C@@H](C)C(=O)N[C@@H](CCCCN)C(=O)N[C@H]2CSCc3cccc(n3)CSC[C@@H](C(=O)N[C@@H](CCC(N)=O)C(N)=O)NC(=O)CNC(=O)[C@H](CC(N)=O)NC(=O)[C@H](CC(=O)O)NC2=O)NC(=O)[C@H](C)NC1=O` (H-QCLYIACPSAAKCDNGCQ-NH2; linker 2-7, 13-17 via Pyridine(2,6-diCH2)), for which the inhibitory constant (Ki) stood at 32 nM.

In the case of `CC(C)C[C@@H]1NC(=O)[C@H](Cc2ccc(O)cc2)NC(=O)[C@H](CC(C)C)NC(=O)[C@@H](N)CSCc2cccc(n2)CSC[C@@H](C(=O)N[C@@H](CO)C(=O)O)NC(=O)[C@H](C)NC1=O` (H-CLYLACS-OH; linker 1-6 via Pyridine(2,6-diCH2)), the Ki was 200 nM.

On to `CC(C)C[C@@H]1NC(=O)[C@@H](NC(=O)[C@@H]2CCCN2)CSCc2cccc(n2)CSC[C@@H](C(=O)N[C@@H](CO)C(=O)O)NC(=O)[C@H](CO)NC(=O)[C@H](CCCNC(=N)N)NC(=O)[C@H](Cc2ccc(O)cc2)NC1=O` (H-PCLYRSCS-OH; linker 2-7 via Pyridine(2,6-diCH2)), for which the inhibitory constant (Ki) is 53 nM.

`CC(C)C[C@@H]1NC(=O)[C@@H](NC(=O)[C@@H]2CCCN2)CSCc2cccc(n2)CSC[C@@H](C(=O)N[C@@H](CO)C(=O)O)NC(=O)[C@H]([C@@H](C)O)NC(=O)[C@H](CC(C)C)NC(=O)[C@H](Cc2ccc(O)cc2)NC1=O` (H-PCLYLTCS-OH; linker 2-7 via Pyridine(2,6-diCH2)): the Ki worked out at 52 nM.

`CC(C)C[C@@H]1NC(=O)[C@@H](NC(=O)C(N)CCCNC(=N)N)CSCc2cccc(n2)CSC[C@@H](C(=O)N[C@@H](CO)C(=O)O)NC(=O)[C@H](CO)NC(=O)[C@H](CC(C)C)NC(=O)[C@H](Cc2ccc(O)cc2)NC1=O` (single isomer, unassigned): the Ki worked out at 8.8 nM.

On to `CC(C)C[C@@H]1NC(=O)[C@@H](NC(=O)C(N)CCC(N)=O)CSCc2cccc(n2)CSC[C@@H](C(=O)N[C@@H](CO)C(=O)O)NC(=O)[C@H](CO)NC(=O)[C@H](CC(C)C)NC(=O)[C@H](Cc2ccc(O)cc2)NC1=O` (single isomer, unassigned), for which the Ki is 12 nM.

The same assay, now with this note: cho.
Turning to `CC(C)C[C@@H]1NC(=O)[C@@H](NC(=O)[C@@H]2CCCN2)CSCC(=O)CSC[C@@H](C(=O)N[C@@H](CO)C(=O)O)NC(=O)[C@H](CCCNC(=N)N)NC(=O)[C@H](CO)NC(=O)[C@H](CC(C)C)NC(=O)[C@H](Cc2ccc(O)cc2)NC1=O` (racemic), the Ki turned out to be 90 nM.
